Reference: patent US4005213A, “2,5-Substituted-1,3,4-thiadiazoles as fungicides” (Schering Aktiengesellschaft, priority 1968, dated 1977)

Tests used:
[1] = system: Pythium ultimum; test: Limit concentration of soil-fungicidal effectiveness, Pythium ultimum infested soil, peas (Example 1); type: in vivo; conditions: Globisporangium ultimum, 20 to 23 days, 22°-25° C., germination at least 90% vs steamed soil
Description: (§1) Limit concentrations of the soil-fungicidal effectiveness at homogeneous mixture of the products with the infested soil. Basic condition in the evaluation are a sound root formation without fungus necroses and germination of the seed of at least 90% compared with the result obtained in steamed soil. Per concentration there were seeded 25 grains of peas of the variety "Miracle of Kelvedon" (marrow pea) without a waiting period. the cultivation time in the tests was 20 to 23 days at a temperature of 22°-25° C. Four commercial products were included in the test series.
Pythium ultimum: Steamed compost soil was inoculated with mycelium of Pythium ultimum

[2] = system: Pythium ultimum; test: Pea test in soil inoculated with Pythium ultimum (Example 2); type: in vivo; set-up: key to Root evaluation (1-4): 4 = white roots, no necroses … 1 = severe necroses, roots rotted; conditions: for Root evaluation (1-4): 3 weeks; for Number of sound peas after 3 wks.: 25 grains seeded
Description: Steamed compost soil was inoculated with mycelium of Pythium ultimum. […] The following table lists the number of germinated sound peas, the weight of the fresh plant, and a root evaluation after a cultivation period of 3 weeks at 22°-25° C.
4 = white roots, without fungus necroses
3 = white roots, slight fungus necroses
2 = brown roots, more intense fungus necroses
1 = severe fungus necroses, roots rotted

[3] = system: Aspergillus niger; test: Agar test, Aspergillus niger (Example 7); type: cell-based; conditions: 10 ppm in malt extract agar, 5 days at 22° C.; control 100
Description: (§2) The fungicidal action of the agents according to the invention was tested in artificial nutrient media against plant-pathogenic fungi in Petri dishes (agar test). The procedure was to sterilize the medium consisting of 2% malt extract and 1.5% agar-agar powder. Before the solidification of the medium, the active substances were added to it, mixing thoroughly, so that the medium received 10 parts of active substance per million (ppm). After the solidification of the medium, the latter was inoculated with a platinum dropper which contained 100 spores each of the fungi to be tested, and after 5 days at 22° C., an evaluation was made by measuring the diameter of the colonies in mm.

[4] = system: Stemphylium ilicis; test: Agar test, Stemphylium ilicis (Example 7); type: cell-based; conditions: 10 ppm in malt extract agar, 5 days at 22° C.; control 100
Description: as §2

[5] = system: Pythium ultimum; test: Fungicidal effect in the vapor phase, Pythium ultimum (Example 11); type: cell-based; conditions: even at 1 mg active ingredient per liter; 3 days, 22° C.; 10% powder
Description: (§3) Nutrient medium inoculated with nycelium of Pythium ultimum or Rhizoctonia solani in open Petri dishes was placed in glass vessels 12 cm tall. First the quantity of product as a 10% powder preparation had been placed on the bottom of the glasses. After a reaction time of 3 days (Pythium) and 5 days (Rhizoctonia) at a temperature of 22° C. in the covered glass vessel, the mycelium growth was evaluated.

[6] = system: Rhizoctonia solani; test: Fungicidal effect in the vapor phase, Rhizoctonia solani (Example 11); type: cell-based; conditions: even at 1 mg active ingredient per liter; 5 days, 22° C.; 10% powder
Description: as §3

[7] = system: Botrytis cinerea; test: Agar test, Botrytis cinerea (Example 7); type: cell-based; conditions: 10 ppm in malt extract agar, 5 days at 22° C.; control 100
Description: as §2

[8] = system: Colletotrichum gloeosporioides; test: Agar test, Colletotrichum gloeosporioides (Example 7); type: cell-based; conditions: 10 ppm in malt extract agar, 5 days at 22° C.; control 100
Description: as §2

[9] = system: Helminthosporium sativum; test: Agar test, Helminthosporium sativum (Example 7); type: cell-based; conditions: 10 ppm in malt extract agar, 5 days at 22° C.; control 100
Description: as §2

[10] = system: Rhizoctonia solani; test: Limit concentration of soil-fungicidal effectiveness, Rhizoctonia solani infested soil, peas (Example 1); type: in vivo; conditions: 20 to 23 days, 22°-25° C., germination at least 90% vs steamed soil
Description: as §1
Rhizoctonia solani: Steamed compost soil was inoculated with mycelium of Rhizoctoniz solani.

[11] = system: Rhizoctonia solani; test: Pea test in soil inoculated with Rhizoctonia solani (Example 3); type: in vivo; conditions: for Root evaluation (1-4): 3 weeks
From the text: Steamed compost soil was inoculated with mycelium of Rhizoctonia solani. After homogeneous mixture of the products with the infested soil, the products were present in the form of 20% powder preparations, the seeding of 25 grains of marrow peas of the variety Miracle of Kelvedon per concentration was effected without waiting period in clay dishes holding 1 liter of soil. The table lists the number of germinated sound peas, the weight of the fresh plant, and a root evaluation after a cultivation period of 3 weeks at 22°-25° C.

[12] = system: Damping-off Fungi; test: Cotton seed disinfection in normal compost soil (Example 6); type: in vivo; conditions: 100 mg active ingr. per kg of seed, 15 days, 22°-25° C.
Description: Cotton seeds disinfected with 10% formulations were seeded in normal compost soil (Damping-off Fungi), 25 grains per concentration. After a cultivation time of 15 days at 22°-25° C., the number of germinated sound cotton seedlings and their weight as fresh plants were determined.

[13] = system: Meloidogyne incognita; test: Nematocidal action against root gall nematodes, cucumber (Example 8); type: in vivo; conditions: reduction of attack, 30 days
Description: The products as 20% powder preparations were homogeneously admixed with a compost soil heavily infested by root gall nematodes. Without a waiting period, 20 cucumber seeds per concentration were seeded. After a cultivation time of 30 days at a temperature of 23°-25° C., the nematocidal action was evaluated by counting the root galls formed in the waterbath. The following table states the reduction of attack in percent. In the control, an average of 90 root galls per seedling had formed.

[14] = 10 mg active ingr. per liter of soil
[15] = 20 mg active ingr. per liter of soil
[16] = 30 mg active ingr. per liter of soil
[17] = 200 mg active ingr. per liter of soil

| SMILES | minimal effective concentration [1] [µg/mL] | Root evaluation (1-4) [2, 14] | Root evaluation (1-4) [2, 15] | Root evaluation (1-4) [2, 16] | diameter of the colonies, Aspergillus niger [3] [mm] | diameter of the colonies, Stemphylium ilicis [4] [mm] | mycelium growth, Pythium ultimum, vapor phase [5] | mycelium growth, Rhizoctonia solani, vapor phase [6] | also measured |
| --- | --- | --- | --- | --- | --- | --- | --- | --- | --- |
| CS(=O)(=O)c1nnc(C(F)(F)F)s1 [Compound 1, 2-trifluoromethyl-5-methylsulfonyl-1,3,4-thiadiazole] | 10 | 4 | 4 | 4 | 0 | 0 | no mycelium growth | no mycelium growth | Number of sound peas after 3 wks. [2, 15]: 22 |
| S=C([S-])NCCNC(=S)[S-].[Zn+2] [Zinc ethylene-bis-dithiocarbamate, reference compound] |  |  |  |  | 78 | 55 |  |  | Root evaluation (1-4) [2, 17]: 1; Number of sound peas after 3 wks. [2, 17]: 14; diameter of the colonies, Botrytis cinerea [7]: 36 mm; diameter of the colonies, Colletotrichum gloeosporioides [8]: 81 mm; diameter of the colonies, Helminthosporium sativum [9]: 50 mm |
| C[S+]([O-])c1nnc(C(F)(F)F)s1 (stereo not drawn) [Compound 35, 2-trifluoromethyl-5-methylsulfinyl-1,3,4-thiadiazole] | 10 |  |  |  |  |  | no mycelium growth | no mycelium growth |  |
| C[S+]([O-])c1nnc(C(F)(F)Cl)s1 (stereo not drawn) [Compound 55, 2-chlorodifluoromethyl-5-methylsulfinyl-1,3,4-thiadiazole] | 10 |  |  |  |  |  |  |  | minimal effective concentration [10]: 10 µg/mL |
| CCS(=O)(=O)c1nnc(C(F)(F)F)s1 [Compound 40, 2-trifluoromethyl-5-ethylsulfonyl-1,3,4-thiadiazole] | 10 |  |  |  |  |  | no mycelium growth | no mycelium growth |  |
| C[S+]([O-])c1nnc(C(Cl)Cl)s1 (stereo not drawn) [Compound 3, 2-dichloromethyl-5-methylsulfinyl-1,3,4-thiadiazole] | 10 | 4 | 4 | 4 | 50 | 0 |  |  | Number of sound peas after 3 wks. ([11]; 10 mg active ingr. per liter of soil, 25 grains seeded): 0; Root evaluation (1-4) [11, 15]: 1; Root evaluation (1-4) [11, 16]: 4; Sound plants in % [12]: 100%; Nematocidal action in % (Meloidogyne incognita) ([13]; 40 mg active substance per liter of soil): 100%; Nematocidal action in % (Meloidogyne incognita) ([13]; 60 mg active substance per liter of soil): 100% |
